Laboratory results reported in article PMC8286348 (Biochemical and biophysical research communications, 2021).
Like-named read-outs stand apart in the source and are kept apart here.

Experiments:
[1] = system: PR dimerization; details: relative to 1; cited from earlier work
[2] = compared to 1; cited from earlier work
[3] = target: PR^S17; experiment: Kinetic inhibition; format: biochemical, HIV-1; details: read-out: Ki for PR^S17; FRET-substrate (BACHEM H-2992), 37°C, pH 5.6
[4] = target: PR^S17; details: read-out: Ki for PR^S17; clinical inhibitors; cited from earlier work
[5] = system: HIV-1; details: read-out: antiviral IC50; MTT assay; cited from earlier work
[6] = target: HIV-1 protease (PR); details: cited from earlier work

| Compound | fold better inhibition of PR dimerization than 1 [1] | CNS penetration in vitro [2] | Ki [3] | Ki [4] | IC50 [5] | Ki [6] |
| --- | --- | --- | --- | --- | --- | --- |
| CC(C)CN(C[C@@H](O)[C@H](Cc1cc(F)cc(F)c1)NC(=O)O[C@H]1C2COC3OCC1C3C2)S(=O)(=O)c1ccc2nc(NC3CC3)sc2c1 (stereo partly shown) [Compound 3, GRL-142] | around 1000 fold | better CNS penetration in vitro compared to 1 | 17 ± 1.3 nM |  |  |  |
| CC(C)CN(C[C@@H](O)[C@H](Cc1ccccc1)NC(=O)O[C@H]1CCOC1)S(=O)(=O)c1ccc(N)cc1 [amprenavir] |  |  |  | 11 nM |  |  |
| GRL-4410 [Compound 2] |  |  | 15.8 ± 4.8 nM |  | 2.4 nM | 0.0029 nM |
